Data on four compounds can be found in PMC11844072, “Novel 5,6-dichlorobenzimidazole derivatives as dual BRAFWT and BRAFV600E inhibitors: design, synthesis, anti-cancer activity and molecular dynamics simulations” (BMC Chemistry, 2025).

The subject of one test is CAKI-1. Briefly: NCI 60 single concentration growth inhibition. Type of test: cell-based, human. To be noted: CAKI-1, Renal cancer; for GI%: 10 μM. An outline of the steps: (§1)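 Cells are plated and left 24 h, and a time-zero plate is fixed at drug addition. Compound is then added for 48 h, the cells are fixed in cold TCA and stained with 0.4% SRB, and bound dye is solubilised in 10 mM Tris for reading at 515 nm.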

For a further test, the system named is HCT-116. Kind of test: NCI 60 single concentration growth inhibition. In kind it is cell-based, human. The note with it: HCT-116, Colon cancer; for GI%: 10 μM. An outline of the steps: as §1
In a further test the test system is KM12. Kind of test: NCI 60 single concentration growth inhibition. Type of test: cell-based, human. To be noted: KM12, Colon cancer; for GI%: 10 μM. An outline of the steps:
as §1

For a further test, the system named is MDA-MB-435. Kind of test: NCI 60 single concentration growth inhibition. In kind it is cell-based, human. To be noted: MDA-MB-435, Melanoma; for GI%: 10 μM. In outline: as §1
The test system of the next test is MOLT-4. Briefly: NCI 60 single concentration growth inhibition. Type of test: cell-based, human. The note with it: MOLT-4, Leukemia; for GI%: 10 μM. An outline of the steps:
as §1

A further test has as its system NCI-H23. Briefly: NCI 60 single concentration growth inhibition. Type of test: cell-based, human. To be noted: NCI-H23, Non-small cell lung cancer; for GI%: 10 μM. An outline of the steps: as §1
Another test has as its system RPMI-8226. Kind of test: NCI 60 single concentration growth inhibition. In kind it is cell-based, human. The note with it: RPMI-8226, Leukemia; for GI%: 10 μM. In outline:
as §1

For a further test, the system named is SF-539. Briefly: NCI 60 single concentration growth inhibition. In kind it is cell-based, human. The note with it: SF-539, CNS cancer; for GI%: 10 μM. An outline of the steps:
as §1

Another test relates to DU-145. Briefly: NCI 60 single concentration growth inhibition. In kind it is cell-based, human. The note with it: DU-145, Prostate cancer; for GI%: 10 μM. On the procedure: (§2) The synthesized dichlorobenzimidazoles 10a–p were assayed for their influence on divers cancer cell lines according to the method presented in the Additional file A.
(§3) 5. Screening of cytotoxic activity against a panel of sixty human tumor cell lines
(§4) The selected compounds by NCI were evaluated for their anticancer activity in a two-stage process. First, these compounds were screened against the full NCI 60 cell lines panel at a single high dose of 10 µM. Then, the output from the single dose screen is reported as a mean graph. […]
(§5) Assay protocol. The human tumor cell lines of the cancer screening panel are grown in RPMI 1640 medium containing 5% fetal bovine serum and 2 mM L-glutamine. For a typical screening experiment, cells are inoculated into 96 well microtiter plates in 100 µL at plating densities ranging from 5000 to 40,000 cells/well depending on the doubling time of individual cell lines. After cell inoculation, the microtiter plates are incubated at 37 °C, 5% CO 2, 95% air and 100% relative humidity for 24 h prior to addition of the experimental drugs.
(§6) After 24 h, two plates of each cell line are fixed in situ with TCA, to represent a measurement of the cell population for each cell line at the time of drug addition (Tz). The experimental drugs are solubilized in dimethyl sulfoxide at 400-fold the desired final maximum test concentration and stored frozen prior to use. At the time of drug addition, an aliquot of frozen concentrate is thawed and diluted to twice the desired final maximum test concentration with complete medium containing 50 µg/mL gentamicin. Additional four, 10-fold or ½ log serial dilutions are made to provide a total of five drug concentrations plus control.
(§7) Aliquots of […] of these different drug dilutions are added to the appropriate microtiter wells already containing […] of medium, resulting in the required final drug concentrations.
(§8) Following drug addition, the plates are incubated for an additional 48 h at 37 °C, 5% CO 2, 95% air, and 100% relative humidity. For adherent cells, the assay is terminated by the addition of cold TCA.
(§9) Cells are fixed in situ by the gentle addition of 50 µL of cold 50% (w/v) TCA (final concentration, 10% TCA) and incubated for 60 min at 4 °C. The supernatant is discarded, and the plates are washed five times with tap water and air dried. Sulforhodamine B (SRB) solution ([…]) at 0.4% (w/v) in 1% acetic acid is added to each well, and plates are incubated for 10 min at room temperature. After staining, unbound dye is removed by washing five times with 1% acetic acid and the plates are air dried. Bound stain is subsequently solubilized with 10 mM trizma base, and the absorbance is read on an automated plate reader at a wavelength of 515 nm. For suspension cells, the methodology is […]
(§10) the same except that the assay is terminated by fixing settled cells at the bottom of the wells by gently adding 50 µl of 80% TCA (final concentration, 16% TCA). Using the seven absorbance measurements [time zero, (Tz), control growth, (C), and test growth in the presence of drug at the five concentration levels (Ti)], the percentage growth is calculated at each of the drug concentrations […]
(§11) Percentage growth inhibition is calculated as: [(Ti Tz)/(C–Tz)] x 100 for concentrations for which Ti>/=Tz and [(Ti-Tz)/Tz] x 100 for concentrations for which Ti < Tz. […]
(§12) Results for each compound were reported as a mean graph of the percent growth of the treated cells when compared to the untreated control cells. There after obtaining the results for one dose assay, analysis of historical Development Therapeutics Programme (DTP) was performed and compounds which satisfies predetermined threshold inhibition criteria is selected for NCI full panel 5 dose assay.

The next test deals with HCC-2998. Briefly: NCI 60 single concentration growth inhibition. The note with it: HCC-2998, Colon cancer; for GI%: 10 μM. In kind it is cell-based, human. On the procedure: as §2, §3, §4, §5, §6, §7, §8, §9, §10, §11, §12
In another test the test system is HCT-15. Briefly: NCI 60 single concentration growth inhibition. In kind it is cell-based, human. To be noted: HCT-15, Colon cancer; for GI%: 10 μM. The procedure: as §2, §3, §4, §5, §6, §7, §8, §9, §10, §11, §12
A further test deals with HT29. Briefly: NCI 60 single concentration growth inhibition. In kind it is cell-based, human. The note with it: for GI%: HT29, Colon cancer, 10 μM. On the procedure: as §2, §3, §4, §5, §6, §7, §8, §9, §10, §11, §12
Another test deals with LOX IMVIL. Briefly: NCI 60 single concentration growth inhibition. In kind it is cell-based, human. The note with it: Melanoma; for GI%: 10 μM. The procedure:
as §2, §3, §4, §5, §6, §7, §8, §9, §10, §11, §12

The next test has as its system NCI-H522. Kind of test: NCI 60 single concentration growth inhibition. The note with it: NCI-H522, Non-small cell lung cancer; for GI%: 10 μM. In kind it is cell-based, human. On the procedure:
as §2, §3, §4, §5, §6, §7, §8, §9, §10, §11, §12

A further test concerns NCI/ADR-RES. Briefly: NCI 60 single concentration growth inhibition. Type of test: cell-based, human. The note with it: Ovarian cancer; for GI%: 10 μM. On the procedure: as §2, §3, §4, §5, §6, §7, §8, §9, §10, §11, §12
Another test has as its system OVCAR-3. Kind of test: NCI 60 single concentration growth inhibition. Type of test: cell-based, human. The note with it: OVCAR-3, Ovarian cancer; for GI%: 10 μM. On the procedure: as §2, §3, §4, §5, §6, §7, §8, §9, §10, §11, §12
The subject of a further test is SW-620. Kind of test: NCI 60 single concentration growth inhibition. To be noted: SW-620, Colon cancer; for GI%: 10 μM. Type of test: cell-based, human. On the procedure:
as §2, §3, §4, §5, §6, §7, §8, §9, §10, §11, §12

Test [1] deals with NCI 60 cancer cell line panel. Briefly: NCI 60 single concentration growth inhibition, panel mean. To be noted: Homo sapiens, mean over NCI 60 panel, read-out: Mean GI%. Type of test: cell-based. On the procedure: as §2, §3, §4
at five different minimal concentrations.
as §5, §6, §7, §8, §9, §10
Percentage growth inhibition is calculated as: [(Ti Tz)/(C–Tz)] x 100 for concentrations for which Ti>/=Tz and [(Ti-Tz)/Tz] x 100 for concentrations for which Ti < Tz.
Three dose response parameters are calculated for each experimental agent. Growth […]
concentration resulting in a 50% reduction in the net protein increase (as measured by SRB staining) in control cells during the drug incubation. The drug concentration resulting in total growth inhibition (TGI) is calculated from Ti = Tz. […]
reduction in the measured protein at the end of the drug treatment as compared to that at the beginning) indicating a net loss of cells following treatment is calculated from [(Ti–Tz)/Tz] x 100 =
_50. Values are calculated for each of these three parameters if the level of activity is reached; […]

With `COc1ccc(-c2nc3cc(Cl)c(Cl)cc3n2CC(=O)NN=Cc2ccc(O)cc2)cc1` [Compound 10b, 2-(5,6-Dichloro-2-(4-methoxyphenyl)-1H-benzo[d]imidazol-1-yl)-N'-(4-hydroxybenzylidene)acetohydrazide], the inhibition at 10 µM in the test with CAKI-1 (Homo sapiens, read-out: GI%) amounted to 57.2%; in the test on HCT-116 (Homo sapiens, read-out: GI%) it was 45.1%; in the test on KM12 (Homo sapiens, read-out: GI%), 26.3%; in the test on MDA-MB-435 (Homo sapiens, read-out: GI%), 39.1%; in the test on MOLT-4 (Homo sapiens, read-out: GI%) it was 77.2%; with NCI-H23 (Homo sapiens, read-out: GI%), 20.3%. The inhibition at 10 µM in the test on RPMI-8226 (Homo sapiens, read-out: GI%) stood at 62.1%; in the test with SF-539 (Homo sapiens, read-out: GI%), 32.5%; with DU-145 (Homo sapiens, read-out: GI%), 30.8%; in the test with HCC-2998 (Homo sapiens, read-out: GI%) it was 21.4%; with HCT-15 (Homo sapiens, read-out: GI%) it was 52.3%; in the test on HT29 (Homo sapiens, HT-29, HT29, Colon cancer, read-out: GI%), 25.1%. Also, the inhibition at 10 µM in the test on LOX IMVIL (Homo sapiens, read-out: GI%) was 42.6%; with NCI-H522 (Homo sapiens, read-out: GI%) it was 21.8%; with NCI/ADR-RES (Homo sapiens, read-out: GI%) it was 28.5%; in the test on OVCAR-3 (Homo sapiens, read-out: GI%), 27%; with SW-620 (Homo sapiens, read-out: GI%) it was 18.6%; in test [1] it was 38.5%.
With “2-(5-((2-(2-(5,6-Dichloro-2-(4-methoxyphenyl)-1H-benzo[d]imidazol-1-yl)acetyl)hydrazono)methyl)-2-methoxyphenoxy)acetic acid [Compound 10n]”, the GI% entry with CAKI-1 is reported as “– (GI% < 5%)”; in the test on HCT-116, 6.00%; in the test with KM12, “– (GI% < 5%)”; in the test with MDA-MB-435, “– (GI% < 5%)”; in the test on MOLT-4, 10.12%; in the test with NCI-H23 it was 9.67%. Besides, the GI% result in the test on RPMI-8226, in the test with SF-539, in the test on DU-145, in the test with HCC-2998, with HCT-15 and in the test on HT29 was “– (GI% < 5%)” in each case. In addition, the GI% in the test with LOX IMVIL is on record as 10.35%; in the test with NCI-H522 it was 8.04%; in the test on NCI/ADR-RES, “– (GI% < 5%)”; in the test with OVCAR-3, “– (GI% < 5%)”; with SW-620, “– (GI% < 5%)”.
Take “3-(4-((2-(2-(5,6-Dichloro-2-(4-methoxyphenyl)-1H-benzo[d]imidazol-1-yl)acetyl)hydrazono)methyl)phenoxy)propanoic acid [Compound 10i]”: the GI% in the test on CAKI-1 is listed as 10.19%; in the test with HCT-116 it was 11.45%; with KM12, “– (GI% < 5%)”; in the test on MDA-MB-435, 7.59%; in the test on MOLT-4, “– (GI% < 5%)”; with NCI-H23, 13.85%. Also, the GI% result with RPMI-8226 is “– (GI% < 5%)”; in the test with SF-539, “– (GI% < 5%)”; in the test on DU-145 it was “– (GI% < 5%)”; with HCC-2998, “– (GI% < 5%)”; in the test on HCT-15, 21.36%; in the test with HT29, “– (GI% < 5%)”. Besides, the GI% is on record as 10.92% in the test with LOX IMVIL; 10.42% in the test with NCI-H522; “– (GI% < 5%)” in the test with NCI/ADR-RES; “– (GI% < 5%)” in the test on OVCAR-3; “– (GI% < 5%)” with SW-620.
For “2-(4-((2-(2-(5,6-Dichloro-2-(4-methoxyphenyl)-1H-benzo[d]imidazol-1-yl)acetyl)hydrazono)methyl) -2-methoxyphenoxy)acetic acid [Compound 10m]”, the GI% result in the test with CAKI-1 is recorded as “– (GI% < 5%)”; in the test with HCT-116, “– (GI% < 5%)”; in the test with KM12 it was “– (GI% < 5%)”; in the test with MDA-MB-435, “– (GI% < 5%)”; in the test on MOLT-4, “– (GI% < 5%)”; in the test on NCI-H23 it was 8.00%. Besides, the GI% result with RPMI-8226, with SF-539, in the test on DU-145, in the test with HCC-2998, with HCT-15 and with HT29 was “– (GI% < 5%)” in each case. The GI% entry in the test on LOX IMVIL was “– (GI% < 5%)”; in the test on NCI-H522, 6.07%; with NCI/ADR-RES, “– (GI% < 5%)”; with OVCAR-3, “– (GI% < 5%)”; in the test on SW-620, “– (GI% < 5%)”.
